In ChEMBL document CHEMBL5241097, “Synthetically-tailored and nature-derived dual COX-2/5-LOX inhibitors: Structural aspects and SAR” (Eur J Med Chem, 2021):
≈ marks a conversion by molar mass, not a printed value.

Tests used:
[1] = tested on: MCF7; test: Anticancer activity against human MCF7 cells assessed as cell growth inhibition incubated for 3 hrs by Sulforhodamine B assay; type: functional, cell-based; settings: MCF7, 3 h
[2] = target: Prostaglandin G/H synthase 1 (Homo sapiens, UniProt P23219); test: Inhibition of COX-1 (unknown origin) by enzyme immune assay
[3] = target: T1, Prostaglandin G/H synthase 2 (Homo sapiens, UniProt P35354); test: Inhibition of COX-2 (unknown origin) by enzyme immune assay
T1 sequence (P35354 whole entry): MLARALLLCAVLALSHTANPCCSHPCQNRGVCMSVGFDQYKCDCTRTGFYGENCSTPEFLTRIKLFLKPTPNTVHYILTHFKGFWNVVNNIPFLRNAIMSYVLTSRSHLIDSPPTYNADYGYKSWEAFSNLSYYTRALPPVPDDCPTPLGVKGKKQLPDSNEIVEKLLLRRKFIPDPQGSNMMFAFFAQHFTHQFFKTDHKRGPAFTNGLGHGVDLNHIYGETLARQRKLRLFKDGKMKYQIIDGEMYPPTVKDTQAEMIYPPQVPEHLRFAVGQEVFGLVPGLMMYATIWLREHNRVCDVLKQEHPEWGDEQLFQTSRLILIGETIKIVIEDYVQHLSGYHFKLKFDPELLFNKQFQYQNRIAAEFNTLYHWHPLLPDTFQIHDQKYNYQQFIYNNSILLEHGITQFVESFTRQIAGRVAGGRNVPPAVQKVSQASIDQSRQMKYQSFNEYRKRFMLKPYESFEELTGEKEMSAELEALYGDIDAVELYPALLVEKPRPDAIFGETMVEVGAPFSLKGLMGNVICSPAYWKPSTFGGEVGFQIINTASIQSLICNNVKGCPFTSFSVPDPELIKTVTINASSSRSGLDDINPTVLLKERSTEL

[4] = tested on: DLD-1; test: Anticancer activity against human DLD-1 cells assessed as cell growth inhibition incubated for 3 hrs by Sulforhodamine B assay; type: functional, cell-based; settings: DLD-1, 3 h
[5] = target: T1, Prostaglandin G/H synthase 2; test: Inhibition of COX-2 (unknown origin) by colorimetric method
[6] = target: T2, Polyunsaturated fatty acid 5-lipoxygenase (Homo sapiens, UniProt P09917); test: Inhibition of human 5-LOX by colorimetric assay
T2 sequence (P09917 whole entry): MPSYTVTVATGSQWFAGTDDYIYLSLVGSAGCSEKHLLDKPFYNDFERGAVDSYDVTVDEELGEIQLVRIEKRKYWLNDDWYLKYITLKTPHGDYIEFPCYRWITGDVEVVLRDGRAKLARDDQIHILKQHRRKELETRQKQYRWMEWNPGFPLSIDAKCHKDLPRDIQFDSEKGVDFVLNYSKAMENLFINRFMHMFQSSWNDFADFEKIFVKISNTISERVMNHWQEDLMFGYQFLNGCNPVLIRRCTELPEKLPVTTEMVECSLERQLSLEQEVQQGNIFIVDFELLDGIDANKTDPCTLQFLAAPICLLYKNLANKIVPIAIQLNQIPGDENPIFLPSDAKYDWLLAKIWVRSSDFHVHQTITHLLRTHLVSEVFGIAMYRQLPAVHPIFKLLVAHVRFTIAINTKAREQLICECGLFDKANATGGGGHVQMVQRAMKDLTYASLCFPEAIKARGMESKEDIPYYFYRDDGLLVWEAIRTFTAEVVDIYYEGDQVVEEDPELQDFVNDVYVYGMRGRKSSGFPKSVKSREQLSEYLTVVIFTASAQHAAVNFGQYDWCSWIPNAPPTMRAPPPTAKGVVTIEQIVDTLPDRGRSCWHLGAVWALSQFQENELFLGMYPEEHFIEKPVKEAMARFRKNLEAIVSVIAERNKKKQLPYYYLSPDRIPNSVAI

Chain of Prostaglandin G/H synthase 1 (P23219 whole entry): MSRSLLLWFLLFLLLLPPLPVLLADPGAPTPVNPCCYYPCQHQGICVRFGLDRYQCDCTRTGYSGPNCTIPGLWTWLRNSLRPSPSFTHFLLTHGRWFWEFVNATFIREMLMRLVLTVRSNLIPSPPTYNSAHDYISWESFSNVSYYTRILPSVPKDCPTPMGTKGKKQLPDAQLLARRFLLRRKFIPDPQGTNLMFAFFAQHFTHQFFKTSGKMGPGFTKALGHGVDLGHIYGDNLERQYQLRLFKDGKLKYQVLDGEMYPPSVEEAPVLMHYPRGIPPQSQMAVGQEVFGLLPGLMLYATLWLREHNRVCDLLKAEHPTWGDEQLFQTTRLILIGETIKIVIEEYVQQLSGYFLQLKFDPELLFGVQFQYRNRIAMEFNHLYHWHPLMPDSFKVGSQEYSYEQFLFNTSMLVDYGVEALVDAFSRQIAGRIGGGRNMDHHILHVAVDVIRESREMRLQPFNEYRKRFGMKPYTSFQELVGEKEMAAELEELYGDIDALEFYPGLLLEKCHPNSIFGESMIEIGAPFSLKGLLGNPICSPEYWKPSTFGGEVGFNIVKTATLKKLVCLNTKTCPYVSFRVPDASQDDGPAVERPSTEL

SMILES | IC50 [1] [µg/mL] | IC50 [2] [µM] | IC50 [3] [µM] | IC50 [4] [µg/mL] | IC50 [5] [nM] | IC50 [6] [nM]
C=C1CC[C@@H]2[C@H](CC2(C)C)C(=C)CC[C@H]1O | 82 (≈ 372 µM) | 395 | 399 | 52.5 (≈ 238 µM) | – | –
O=C1/C(=C/c2ccc(Cl)cc2)N=C(c2ccccc2)N1c1ccc(-c2nc3ccccc3o2)cc1 | – | – | – | – | 250 | 20
